Results from ChEMBL document CHEMBL1143794, “Discovery of [7-(2,6-dichlorophenyl)-5-methylbenzo [1,2,4]triazin-3-yl]-[4-(2-pyrrolidin-1-ylethoxy)phenyl]amine--a potent, orally active Src kinase inhibitor with anti-tumor activity in preclinical assays” (Bioorg Med Chem Lett, 2007).
Each block holds one compound with its values, some of them ahead of it.

What was measured:
[1] = target: Proto-oncogene tyrosine-protein kinase Src (Homo sapiens, UniProt P12931)
CT26 [2] = assay: Antitumor activity against mouse CT26 cells; assay type: functional, cell-based
[3] = Tmax in mouse at 25 mg/kg, po; assay type: ADME, organism-based; parameters: dose 25 mg/kg, route oral; conditions: in vivo
[4] = Tmax in rat at 25 mg/kg, po; assay type: ADME, organism-based; parameters: dose 25 mg/kg, route oral; conditions: in vivo
[5] = Tmax in dog at 25 mg/kg, po; assay type: ADME, organism-based, Canis lupus familiaris; parameters: dose 25 mg/kg, route oral; conditions: in vivo
[6] = Half life in mouse at 25 mg/kg, po; assay type: ADME, organism-based; parameters: dose 25 mg/kg, route oral; conditions: in vivo
[7] = Half life in rat at 25 mg/kg, po; assay type: ADME, organism-based; parameters: dose 25 mg/kg, route oral; conditions: in vivo
[8] = Half life in dog at 25 mg/kg, po; assay type: ADME, organism-based, Canis lupus familiaris; parameters: dose 25 mg/kg, route oral; conditions: in vivo
Mus musculus [9] = assay: AUC in mouse at 25 mg/kg, po; assay type: ADME, organism-based, Plasma; parameters: dose 25 mg/kg, route oral; conditions: in vivo
Rattus norvegicus [10] = assay: AUC in rat at 25 mg/kg, po; assay type: ADME, organism-based, Plasma; parameters: dose 25 mg/kg, route oral; conditions: in vivo
Canis familiaris [11] = assay: AUC in dog at 25 mg/kg, po; assay type: ADME, organism-based, Canis lupus familiaris, Plasma; parameters: dose 25 mg/kg, route oral; conditions: in vivo
[12] = Clearance in mouse at 25 mg/kg, po; assay type: ADME, organism-based; parameters: dose 25 mg/kg, route oral; conditions: in vivo
[13] = Clearance in rat at 25 mg/kg, po; assay type: ADME, organism-based; parameters: dose 25 mg/kg, route oral; conditions: in vivo
[14] = Clearance in dog at 25 mg/kg, po; assay type: ADME, organism-based, Canis lupus familiaris; parameters: dose 25 mg/kg, route oral; conditions: in vivo
Mus musculus [15] = assay: Volume of distribution in mouse at 25 mg/kg, po; assay type: ADME, organism-based; parameters: dose 25 mg/kg, route oral; conditions: in vivo
Rattus norvegicus [16] = assay: Volume of distribution in rat at 25 mg/kg, po; assay type: ADME, organism-based; parameters: dose 25 mg/kg, route oral; conditions: in vivo
Canis familiaris [17] = assay: Volume of distribution in dog at 25 mg/kg, po; assay type: ADME, organism-based, Canis lupus familiaris; parameters: dose 25 mg/kg, route oral; conditions: in vivo
[18] = Bioavailability in mouse at 25 mg/kg, po; assay type: ADME, organism-based; conditions: in vivo
[19] = Bioavailability in rat at 25 mg/kg, po; assay type: ADME, organism-based; conditions: in vivo
[20] = Bioavailability in dog at 25 mg/kg, po; assay type: ADME, organism-based, Canis lupus familiaris; conditions: in vivo
Cytochrome P450 3A4 = Cytochrome P450 3A4 (Homo sapiens, UniProt P08684); assay: Inhibition of CYP3A4; assay type: ADME
Cytochrome P450 1A2 = target: T1, Cytochrome P450 1A2 (Homo sapiens, UniProt P05177); assay: Inhibition of CYP1A2; assay type: ADME
T1 sequence (P05177 whole entry): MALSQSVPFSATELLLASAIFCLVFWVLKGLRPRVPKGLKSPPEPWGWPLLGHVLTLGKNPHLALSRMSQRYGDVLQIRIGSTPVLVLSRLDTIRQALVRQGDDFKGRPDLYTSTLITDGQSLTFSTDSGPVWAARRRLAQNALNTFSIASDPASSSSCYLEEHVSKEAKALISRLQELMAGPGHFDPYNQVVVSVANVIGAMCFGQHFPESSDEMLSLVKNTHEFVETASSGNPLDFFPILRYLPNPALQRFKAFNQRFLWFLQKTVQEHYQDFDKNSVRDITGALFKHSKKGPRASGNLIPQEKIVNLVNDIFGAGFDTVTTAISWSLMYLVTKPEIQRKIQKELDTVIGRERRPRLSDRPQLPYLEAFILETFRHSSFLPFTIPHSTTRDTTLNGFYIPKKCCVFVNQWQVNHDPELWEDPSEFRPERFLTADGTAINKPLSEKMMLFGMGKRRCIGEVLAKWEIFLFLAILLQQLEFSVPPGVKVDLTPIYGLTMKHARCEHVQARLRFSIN

Cytochrome P450 2C9 = Cytochrome P450 2C9 (Homo sapiens, UniProt P11712); assay: Inhibition of CYP2C9; assay type: ADME
Cytochrome P450 2C19 = Cytochrome P450 2C19 (Homo sapiens, UniProt P33261); assay: Inhibition of CYP2C19; assay type: ADME
Cytochrome P450 2D6 = Cytochrome P450 2D6 (Homo sapiens, UniProt P10635); assay: Inhibition of CYP2D6; assay type: ADME
[21] = Cmax in mouse at 25 mg/kg, po; assay type: ADME, organism-based; parameters: dose 25 mg/kg, route oral; conditions: in vivo
[22] = Cmax in rat at 25 mg/kg, po; assay type: ADME, organism-based; parameters: dose 25 mg/kg, route oral; conditions: in vivo
[23] = Cmax in dog at 25 mg/kg, po; assay type: ADME, organism-based, Canis lupus familiaris; parameters: dose 25 mg/kg, route oral; conditions: in vivo
[24] = target: Platelet-derived growth factor receptor beta (Homo sapiens, UniProt P09619); assay: Inhibition of PDGFRbeta
MOLT-4 = assay: Antitumor activity against Molt4 cells; assay type: functional, cell-based; conditions: Homo sapiens
K562 = assay: Antitumor activity against K562 cells; assay type: functional, cell-based; conditions: Homo sapiens
COLO 205 = assay: Antitumor activity against Colo205 cells; assay type: functional, cell-based; conditions: Homo sapiens
HT-29 = assay: Antitumor activity against HT29 cells; assay type: functional, cell-based; conditions: Homo sapiens
MDA-MB-231 = assay: Antitumor activity against MDA-MB-231 cells; assay type: functional, cell-based; conditions: Homo sapiens
MCF7 = assay: Antitumor activity against MCF7 cells; assay type: functional, cell-based; conditions: Homo sapiens
A549 [25] = assay: Antitumor activity against A549 cells; assay type: functional, cell-based; conditions: Homo sapiens
CT26 [26] = assay: Reduction of tumor volume in CT26 xenografted in BALB/c mouse at 50 mg/kg, ip relative to control; assay type: functional; parameters: scale not given: the % may be the effect or the level left; conditions: route intraperitoneal
A549 [27] = assay: Reduction of tumor burden in A549 cells xenografted in nu/nu mouse at 40 mg/kg, ip relative to control; assay type: functional; parameters: scale not given: the % may be the effect or the level left; conditions: route intraperitoneal

Sequence of Proto-oncogene tyrosine-protein kinase Src (P12931 2-536 limits assumed): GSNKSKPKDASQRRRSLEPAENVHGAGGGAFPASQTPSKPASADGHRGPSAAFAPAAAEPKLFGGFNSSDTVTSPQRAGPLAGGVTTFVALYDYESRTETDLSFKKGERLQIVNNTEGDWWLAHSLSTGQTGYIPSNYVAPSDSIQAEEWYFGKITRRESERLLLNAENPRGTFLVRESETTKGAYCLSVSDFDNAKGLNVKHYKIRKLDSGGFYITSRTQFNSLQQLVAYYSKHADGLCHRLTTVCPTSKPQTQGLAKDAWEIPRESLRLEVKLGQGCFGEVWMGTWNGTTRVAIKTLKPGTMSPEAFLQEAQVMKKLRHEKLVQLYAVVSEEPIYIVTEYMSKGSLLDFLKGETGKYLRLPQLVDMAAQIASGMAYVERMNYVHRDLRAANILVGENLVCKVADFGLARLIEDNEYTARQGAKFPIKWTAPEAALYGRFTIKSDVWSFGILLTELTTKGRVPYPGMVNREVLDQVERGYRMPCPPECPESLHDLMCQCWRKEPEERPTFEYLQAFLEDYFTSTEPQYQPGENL
Sequence of Cytochrome P450 3A4 (P08684 whole entry): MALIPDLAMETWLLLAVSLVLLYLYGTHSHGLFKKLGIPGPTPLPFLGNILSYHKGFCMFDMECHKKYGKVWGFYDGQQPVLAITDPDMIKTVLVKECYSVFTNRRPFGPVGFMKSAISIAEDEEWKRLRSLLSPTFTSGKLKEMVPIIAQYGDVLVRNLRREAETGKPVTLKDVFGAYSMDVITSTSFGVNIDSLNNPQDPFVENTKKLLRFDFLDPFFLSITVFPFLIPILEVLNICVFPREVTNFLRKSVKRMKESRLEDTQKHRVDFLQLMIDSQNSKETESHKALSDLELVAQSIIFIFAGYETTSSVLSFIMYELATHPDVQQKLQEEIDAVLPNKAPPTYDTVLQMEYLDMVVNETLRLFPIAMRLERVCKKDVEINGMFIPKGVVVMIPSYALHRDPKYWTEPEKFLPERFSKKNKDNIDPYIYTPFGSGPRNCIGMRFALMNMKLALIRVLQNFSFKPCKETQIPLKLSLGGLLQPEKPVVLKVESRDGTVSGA
Sequence of Cytochrome P450 2C19 (P33261 whole entry): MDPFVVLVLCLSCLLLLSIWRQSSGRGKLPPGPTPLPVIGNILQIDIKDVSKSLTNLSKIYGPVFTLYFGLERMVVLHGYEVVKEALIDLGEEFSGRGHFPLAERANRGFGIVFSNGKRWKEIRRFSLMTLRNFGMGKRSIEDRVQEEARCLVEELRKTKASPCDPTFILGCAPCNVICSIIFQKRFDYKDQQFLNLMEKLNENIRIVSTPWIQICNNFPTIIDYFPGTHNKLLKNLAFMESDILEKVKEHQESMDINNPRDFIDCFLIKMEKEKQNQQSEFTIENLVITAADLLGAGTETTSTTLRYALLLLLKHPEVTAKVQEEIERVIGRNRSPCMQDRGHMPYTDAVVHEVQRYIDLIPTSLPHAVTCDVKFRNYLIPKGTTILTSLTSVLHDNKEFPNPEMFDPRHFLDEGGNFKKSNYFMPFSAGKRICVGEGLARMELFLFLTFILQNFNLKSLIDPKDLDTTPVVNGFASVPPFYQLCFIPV
Sequence of Cytochrome P450 2D6 (P10635 whole entry): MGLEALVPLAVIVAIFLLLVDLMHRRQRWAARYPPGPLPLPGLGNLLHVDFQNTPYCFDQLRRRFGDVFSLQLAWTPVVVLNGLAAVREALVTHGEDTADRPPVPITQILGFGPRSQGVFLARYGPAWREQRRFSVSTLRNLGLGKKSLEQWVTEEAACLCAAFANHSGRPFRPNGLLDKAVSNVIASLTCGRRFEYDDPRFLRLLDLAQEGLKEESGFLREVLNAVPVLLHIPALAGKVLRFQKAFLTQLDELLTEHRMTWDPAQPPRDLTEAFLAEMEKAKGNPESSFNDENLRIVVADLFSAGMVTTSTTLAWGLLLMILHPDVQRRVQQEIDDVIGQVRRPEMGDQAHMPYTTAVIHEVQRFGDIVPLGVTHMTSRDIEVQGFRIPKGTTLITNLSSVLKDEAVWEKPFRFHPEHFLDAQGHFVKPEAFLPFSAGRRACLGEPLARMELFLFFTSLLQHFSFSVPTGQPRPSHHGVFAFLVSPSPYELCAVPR
Sequence of Cytochrome P450 2C9 (P11712 whole entry): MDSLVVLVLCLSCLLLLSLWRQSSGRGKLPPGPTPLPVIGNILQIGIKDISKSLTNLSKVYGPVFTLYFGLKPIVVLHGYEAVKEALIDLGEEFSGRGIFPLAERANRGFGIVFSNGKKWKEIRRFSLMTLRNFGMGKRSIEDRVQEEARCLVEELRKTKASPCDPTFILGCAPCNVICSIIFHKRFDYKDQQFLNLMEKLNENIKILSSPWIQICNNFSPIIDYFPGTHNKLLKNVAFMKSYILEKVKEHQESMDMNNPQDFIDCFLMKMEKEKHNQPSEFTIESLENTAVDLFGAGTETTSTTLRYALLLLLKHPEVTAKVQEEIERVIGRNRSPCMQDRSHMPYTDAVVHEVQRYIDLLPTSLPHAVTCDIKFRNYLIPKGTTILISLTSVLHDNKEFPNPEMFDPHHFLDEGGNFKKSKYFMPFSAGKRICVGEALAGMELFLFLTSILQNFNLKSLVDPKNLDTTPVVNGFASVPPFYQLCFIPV
Sequence of Platelet-derived growth factor receptor beta (P09619 whole entry): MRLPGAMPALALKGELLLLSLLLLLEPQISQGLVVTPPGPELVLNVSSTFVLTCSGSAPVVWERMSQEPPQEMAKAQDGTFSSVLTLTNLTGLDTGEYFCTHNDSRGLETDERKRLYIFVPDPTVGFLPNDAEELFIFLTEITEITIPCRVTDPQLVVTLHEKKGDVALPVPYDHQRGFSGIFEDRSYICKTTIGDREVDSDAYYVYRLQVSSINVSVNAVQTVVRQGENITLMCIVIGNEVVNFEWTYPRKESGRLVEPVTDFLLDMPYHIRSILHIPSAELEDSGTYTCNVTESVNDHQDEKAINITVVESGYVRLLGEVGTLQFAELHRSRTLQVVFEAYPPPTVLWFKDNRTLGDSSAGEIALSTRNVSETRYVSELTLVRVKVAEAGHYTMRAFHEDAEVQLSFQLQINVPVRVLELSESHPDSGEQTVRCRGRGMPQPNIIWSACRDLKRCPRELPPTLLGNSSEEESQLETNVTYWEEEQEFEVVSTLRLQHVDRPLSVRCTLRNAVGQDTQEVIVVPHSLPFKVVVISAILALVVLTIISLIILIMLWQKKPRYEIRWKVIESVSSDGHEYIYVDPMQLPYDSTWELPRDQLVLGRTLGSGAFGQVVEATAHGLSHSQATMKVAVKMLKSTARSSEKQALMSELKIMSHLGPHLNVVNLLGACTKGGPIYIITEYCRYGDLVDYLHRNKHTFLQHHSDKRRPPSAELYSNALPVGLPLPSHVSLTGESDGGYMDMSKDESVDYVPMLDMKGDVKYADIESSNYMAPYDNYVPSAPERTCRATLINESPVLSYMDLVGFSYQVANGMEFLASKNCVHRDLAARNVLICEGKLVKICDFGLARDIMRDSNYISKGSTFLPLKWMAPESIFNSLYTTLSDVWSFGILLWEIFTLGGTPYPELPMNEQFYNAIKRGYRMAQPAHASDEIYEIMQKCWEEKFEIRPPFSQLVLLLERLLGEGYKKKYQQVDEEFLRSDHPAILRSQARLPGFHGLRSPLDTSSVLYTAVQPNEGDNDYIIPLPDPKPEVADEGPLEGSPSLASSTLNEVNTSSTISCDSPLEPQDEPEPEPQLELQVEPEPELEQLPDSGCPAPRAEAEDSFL

Structure (SMILES): Cc1cc2nc(Nc3ccc(S(=O)(=O)NCCN4CCCC4)cc3)nnc2cc1Br
IC50 [1]: > 10000 nM

Structure (SMILES): Cc1ccc(CN)cc1-c1cc(C)c2nc(Nc3ccc(S(=O)(=O)NCCN4CCCC4)cc3)nnc2c1
IC50 [1]: 353 nM

Structure (SMILES): CCN(CC)CCOc1cccc(Nc2nnc3cc(-c4c(C)cccc4C)cc(C)c3n2)c1
IC50 (CT26 [2]): 2500 nM

Structure (SMILES): Cc1cccc(C)c1-c1cc(C)c2nc(Nc3ccc(OCCN4CCCC4)cc3)nnc2c1
Tmax [3]: 6 h
Tmax [4]: 6 h
Tmax [5]: 1.5 h
half-life [6]: 9.5 h
half-life [7]: 5.6 h
half-life [8]: 19 h
AUC (Mus musculus [9]): 19100 ng·h/mL
AUC (Rattus norvegicus [10]): 9570 ng·h/mL
AUC (Canis familiaris [11]): 9680 ng·h/mL
CL/F [12]: 18.8 mL/min/kg
CL/F [13]: 9.2 mL/min/kg
CL/F [14]: 5.1 mL/min/kg
Vdss (Mus musculus [15]): 11.4 L/kg
Vdss (Rattus norvegicus [16]): 7.2 L/kg
Vdss (Canis familiaris [17]): 8.6 L/kg
bioavailability [18]: 86%
bioavailability [19]: 20%
bioavailability [20]: 68%
IC50 (CT26 [2]): 2300 nM
IC50 (Cytochrome P450 3A4): 42000 nM
IC50 (Cytochrome P450 1A2): > 100000 nM
IC50 (Cytochrome P450 2C9): > 100000 nM
IC50 (Cytochrome P450 2C19): 12000 nM
IC50 (Cytochrome P450 2D6): 25000 nM
Cmax [21]: 790 ng/mL
Cmax [22]: 419 ng/mL
Cmax [23]: 5240 ng/mL

Structure (SMILES): Cc1cc(-c2c(Cl)cccc2Cl)cc2nnc(Nc3ccc(OCCN4CCCC4)cc3)nc12
Tmax [3]: 8 h
Tmax [4]: 8.8 h
Tmax [5]: 4 h
half-life [6]: 8 h
half-life [7]: 4.6 h
half-life [8]: 13 h
AUC (Mus musculus [9]): 15300 ng·h/mL
AUC (Rattus norvegicus [10]): 8010 ng·h/mL
AUC (Canis familiaris [11]): 8680 ng·h/mL
CL/F [12]: 12.7 mL/min/kg
CL/F [13]: 12.7 mL/min/kg
CL/F [14]: 14.5 mL/min/kg
Vdss (Mus musculus [15]): 16.1 L/kg
Vdss (Rattus norvegicus [16]): 9.4 L/kg
Vdss (Canis familiaris [17]): 18.7 L/kg
bioavailability [18]: 74%
bioavailability [19]: 35%
bioavailability [20]: 42%
Ki [24]: 2090 nM
IC50 (MOLT-4): 250 nM
IC50 (K562): 215 nM
IC50 (CT26 [2]): 750 nM
IC50 (COLO 205): 2500 nM
IC50 (HT-29): > 5000 nM
IC50 (MDA-MB-231): 240 nM
IC50 (MCF7): 85 nM
IC50 (A549 [25]): 900 nM
IC50 (Cytochrome P450 3A4): 62000 nM
IC50 (Cytochrome P450 1A2): > 100000 nM
IC50 (Cytochrome P450 2C9): > 100000 nM
IC50 (Cytochrome P450 2C19): 12000 nM
IC50 (Cytochrome P450 2D6): 33000 nM
Activity (CT26 [26]): 60%
Activity (A549 [27]): 86%
Cmax [21]: 415 ng/mL
Cmax [22]: 348 ng/mL
Cmax [23]: 679 ng/mL

Structure (SMILES): COc1ccc(Cl)c(-c2cc(C)c3nc(Nc4ccc(OCCN5CCCC5)cc4)nnc3c2)c1
IC50 [1]: 778 nM

Structure (SMILES): Cc1cccc(C)c1-c1cc(C)c2nc(Nc3ccnc(OCCN4CCCC4)c3)nnc2c1
IC50 (CT26 [2]): 2400 nM

Structure (SMILES): Cc1ccc2nnc(Nc3ccc(S(=O)(=O)NCCN4CCCC4)cc3)nc2c1
IC50 [1]: > 10000 nM

Structure (SMILES): c1ccc2nc(Nc3ccc(OCCN4CCCC4)cc3)nnc2c1
IC50 [1]: > 10000 nM

Structure (SMILES): Cc1cccc(C)c1-c1cc(C)c2nc(Nc3ccc(OCCN4CCN(C)CC4)cc3)nnc2c1
IC50 (CT26 [2]): 6600 nM

The remaining compounds from weak to strong by IC50 [1], led by results:

IC50 [1]: 208 nM
Structure (SMILES): COc1cc2c(cc1O)CCN[C@]21CS[C@H]2c3c(OC(C)=O)c(C)c4c(c3[C@@H](COC1=O)N1[C@@H]2[C@H]2c3c(cc(C)c(OC)c3O)C[C@@H]([C@@H]1O)N2C)OCO4

IC50 [1]: 204 nM
Structure (SMILES): Cc1cnc(F)cc1-c1cc(C)c2nc(Nc3ccc(OCCN4CCCC4)cc3)nnc2c1

IC50 [1]: 92 nM
Structure (SMILES): Cc1cc2nc(Nc3ccc(S(=O)(=O)NCCN4CCCC4)cc3)nnc2cc1N

IC50 [1]: 30 nM
Structure (SMILES): Clc1cccc(Cl)c1-c1ccc2nc(Nc3ccc(OCCN4CCCC4)cc3)nnc2c1

IC50 [1]: 21 nM
Structure (SMILES): Cc1cccc(C)c1-c1cc(NS(C)(=O)=O)c2nc(Nc3ccc(OCCN4CCCC4)cc3)nnc2c1

IC50 [1]: 18 nM
Structure (SMILES): Cc1cccc(C)c1-c1cc(C)c2nc(Nc3cccc(N(CCN4CCCC4)C(=O)c4ccccc4)c3)nnc2c1

IC50 (CT26 [2]): 2400 nM
IC50 [1]: 16 nM
Structure (SMILES): Cc1cccc(C)c1-c1cc(C)c2nc(Nc3ccc(N(CCN4CCCC4)C(=O)c4ccccc4)cc3)nnc2c1

IC50 (CT26 [2]): 6700 nM
IC50 [1]: 15 nM
Structure (SMILES): Cc1cccc(C)c1-c1cc(C)c2nc(Nc3ccc(C(=O)NN4CCN(C)CC4)cc3)nnc2c1

IC50 [1]: 14 nM
Structure (SMILES): CC(=O)Nc1cc(-c2c(C)cccc2C)cc2nnc(Nc3ccc(OCCN4CCCC4)cc3)nc12

IC50 [1]: 13 nM
Structure (SMILES): Cc1cccc(C)c1-c1cc(C)c2nc(Nc3ccc(C(=O)NN4CCNCC4)cc3)nnc2c1

IC50 [1]: 10 nM
Structure (SMILES): CNc1cc(-c2c(C)cccc2C)cc2nnc(Nc3ccc(OCCN4CCCC4)cc3)nc12

IC50 [1]: 10 nM
Structure (SMILES): Cc1cccc(C)c1-c1cc(N)c2nc(Nc3ccc(OCCN4CCCC4)cc3)nnc2c1
